Patent publication US10086039B2, “Lamin A, an activator of longevity/anti-aging SIRT1 protein” (THE UNIVERSITY OF HONG KONG, priority 2012, dated 2018)

Assays:
[1] = target: T1, rhSIRT1 binding to rhLamin A (Homo sapiens, UniProt Q96EB6); assay: Pull-down of rhSIRT1 with rhLamin A in test tube (anti-lamin A immunoprecipitation); conditions: in the test tube, co-immunoprecipitation
T1 construct: purchased Diatheva, Italy (rhLamin A)
T1 sequence (Q96EB6 1-747): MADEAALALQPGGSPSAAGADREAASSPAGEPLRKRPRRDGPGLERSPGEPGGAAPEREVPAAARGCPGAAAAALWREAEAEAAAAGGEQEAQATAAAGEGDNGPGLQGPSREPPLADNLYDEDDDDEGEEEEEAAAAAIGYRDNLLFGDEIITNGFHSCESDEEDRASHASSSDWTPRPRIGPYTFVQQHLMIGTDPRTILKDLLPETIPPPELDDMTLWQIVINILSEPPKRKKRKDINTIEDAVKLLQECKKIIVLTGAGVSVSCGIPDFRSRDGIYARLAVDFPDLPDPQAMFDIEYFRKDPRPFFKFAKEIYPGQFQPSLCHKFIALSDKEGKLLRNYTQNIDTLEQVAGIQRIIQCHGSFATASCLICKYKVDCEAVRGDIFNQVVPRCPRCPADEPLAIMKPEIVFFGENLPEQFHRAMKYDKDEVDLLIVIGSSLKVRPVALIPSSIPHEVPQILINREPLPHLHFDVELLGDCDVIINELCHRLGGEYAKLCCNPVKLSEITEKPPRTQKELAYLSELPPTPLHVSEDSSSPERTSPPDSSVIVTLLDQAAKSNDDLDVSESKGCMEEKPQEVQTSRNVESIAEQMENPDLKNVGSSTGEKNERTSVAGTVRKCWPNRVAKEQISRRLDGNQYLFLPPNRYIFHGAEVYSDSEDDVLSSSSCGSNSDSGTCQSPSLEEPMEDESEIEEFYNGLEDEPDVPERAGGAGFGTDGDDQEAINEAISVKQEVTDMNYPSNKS
T1 sequence (P02545 1-664 partner): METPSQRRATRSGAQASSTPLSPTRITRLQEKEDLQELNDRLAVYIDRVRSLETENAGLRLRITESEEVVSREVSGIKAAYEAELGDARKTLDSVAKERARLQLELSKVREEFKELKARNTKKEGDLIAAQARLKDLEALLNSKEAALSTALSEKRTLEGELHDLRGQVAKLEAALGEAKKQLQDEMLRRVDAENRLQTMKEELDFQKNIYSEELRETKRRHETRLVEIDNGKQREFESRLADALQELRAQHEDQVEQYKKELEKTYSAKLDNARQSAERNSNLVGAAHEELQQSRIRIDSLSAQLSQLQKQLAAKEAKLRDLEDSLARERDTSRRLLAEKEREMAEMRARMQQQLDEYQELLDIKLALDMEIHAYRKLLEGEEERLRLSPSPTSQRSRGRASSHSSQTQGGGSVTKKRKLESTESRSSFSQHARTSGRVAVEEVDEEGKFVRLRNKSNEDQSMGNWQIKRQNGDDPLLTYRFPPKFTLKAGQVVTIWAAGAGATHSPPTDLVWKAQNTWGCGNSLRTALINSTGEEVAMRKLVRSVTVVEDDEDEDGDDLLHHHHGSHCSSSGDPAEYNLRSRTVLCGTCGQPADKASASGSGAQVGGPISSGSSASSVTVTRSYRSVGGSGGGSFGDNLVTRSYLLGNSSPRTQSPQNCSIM
Experimental: For co-immunoprecipitation, cells were lysed into pre-chilled RIPA buffer containing 300 mM or 500 mM NaCl and protease inhibitors. Primary antibodies or appropriate control IgGs were added to the lysate and incubated for 2 h on a rocking platform at 4° C. before Agarose beads were added and incubated O/N. The beads were washed twice with RIPA buffer, resuspended into Laemmli buffer and boiled, and protein suspension was collected by centrifugation and stored for further analysis.
Consistently, ectopic EGFP-SIRT1 and DsRed-lamin A co-existed in the nuclear interior (FIG. 1D). This interaction seems specific to nuclear SIRT1 as neither cytoplasmic SIRT1 nor mitochondrial SIRT5 was detected in the anti GFP-lamin A immunoprecipitates (FIG. 6C). In addition, SIRT1 physically interacts with lamin A as recombinant human SIRT1 (rhSIRT1) was pulled down by recombinant human lamin A (rhLamin A) in a test tube (FIG. 1E).

H3K9ac = H3K9ac level in wild-type, SIRT1 null and Lmna null cells (immunoblot, immunofluorescence); assay type: cell-based
Experimental: Western blotting was performed as described previously (Liu et al., 2005). Relative band intensity was measured by IMAGE J® and normalized to corresponding wild-type or untreated controls as indicated.
In addition to acetyl p53, H3K9ac is another substrate of SIRT1 deacetylase (Wang et al., 2008). This Example further investigates the effects of resveratrol on H3K9ac in the wild-type, SIRT1^−/− or Lmna null cells. […] Anti-H3K9ac immunofluorescence staining further confirmed the lamin A-dependent activation of SIRT1 by resveratrol (FIG. 3G).

AMPK = AMPK activation at low doses of resveratrol; assay type: cell-based; conditions: low doses (2-10 μM)
Experimental: It was shown that low doses of resveratrol (≤25 μM) activates AMPK in a SIRT1-dependent manner, while high doses (≥50 μM) activate AMPK independent of SIRT1 (Baur et al., 2006; Price et al., 2012; Sun et al., 2007). In the present invention, low doses (2-10 μM) of resveratrol were used and activation of AMPK was not observed; therefore, it is postulated that the beneficial effects of resveratrol on BMSCs are primarily attributable to the activation of SIRT1.

## Oc1ccc(C=Cc2cc(O)cc(O)c2)cc1 [resveratrol]
[1]
  binding of rhSIRT1 to rhLamin A: enhanced the binding
H3K9ac; Lmna−/− cells
  effect on level of H3K9ac: completely abrogated
H3K9ac; SIRT1−/− cells
  effect on level of H3K9ac: completely abrogated
H3K9ac; wild-type cells
  level of H3K9ac: downregulated
AMPK
  activation of AMPK: not observed
